Values of other authors in patent US20250262160A1, “COMPOSITIONS FOR MODIFIED RELEASE OF ACTIVE INGREDIENTS” (PROLEVI BIO AB, priority 2022, published 2025).
Like-named read-outs stand apart in the source and are kept apart here.

Experiments:
[1] = assumed parameter for IVIVC, as reported in literature

Half-life (t½) after baseline (120 ng/dL) correction (estimated, parameter used for IVIVC) [h]	elimination half-life (in adults) [h]	biological half-life (in vivo) [days]	estimated baseline corrected half-life (in vivo) [h]	bioavailability (parameter used for IVIVC) [%]	Tmax (thyroidectomized patients administered exogenous hormone) [h]	T1/2 half-life (thyroidectomized patients administered exogenous hormone, after last LT3 dose withdrawal) [h]	Half-life (T1/2) [1] [h]	oral bioavailability (BA) [1] [%]	Compound	Volume of distribution (Vd) (body weight 75 kg euthyroid individual, parameter used for IVIVC) [L/kg]	Volume of distribution (Vd) ([1]; body weight 75 Kg) [L]
4	23 to 25	2.5	4	95	2.9	3.62			N[C@@H](Cc1cc(I)c(Oc2ccc(O)c(I)c2)c(I)c1)C(=O)O [Formulation T3, triiodothyronine]	0.2	
							0.75	15	COc1ccc2[nH]cc(CCNC(C)=O)c2c1 [melatonin]		1602
